Results taken from patent publication US11753433B2, “Methods of synthesizing substituted purine compounds” (Epizyme, Inc., priority 2013, dated 2023).

Columns and labels:
[1] = Solid-state stability; assay type: physicochemical
Protocol: Chemical Stability: Accurately weighed ˜10 mg Form B was placed into four 10-ml volumetric flasks. The samples were stored at 5° C. closed dish, 25° C./57% RH open dish, 40° C./75% RH open dish, and 60° C. closed dish for 7 days. The sample stored at 5° C. was used as a control. Assay and total related substances for each sample were checked at the end of 7 days.
Physical Stability: Accurately weighed ˜15 mg of Form B was placed into 5-ml glass vials and the samples were stored at 5° C. closed dish, 25° C./57% RH open dish, 40° C./75% RH open dish, and 60° C. closed dish for 7 days. Samples were analyzed by XRPD and TGA (FIG. 24).

[2] = Solution stability; assay type: physicochemical
Protocol: 0.1 mg/ml solutions of Form B were prepared in five buffers, including 0.01N HCl (pH 2), 50 mM sodium citrate (pH 4), 50 mM sodium citrate (pH 6), 50 mM sodium phosphate (pH 8), and 50 mM sodium carbonate (pH 10). Methanol was added as a co-solvent to dissolve Form B in buffers (i.e., 10% (v/v) in pH 2, 4, and 6 buffers, 20% (v/v) in pH 8 buffer, and 30% (v/v) in pH 10 buffer). Each buffer solution containing Form B was stored at 3 different temperatures: 25° C., 37° C., and 50° C. Aliquots were taken for HPLC analysis after 1 day and 7 days. pH values were also measured before and after the stability experiments.

[3] = 5° C. Closed Dish, 7 Days (control)
[4] = 25° C./57% RH Open Dish, 7 Days
[5] = 40° C./75% RH Open Dish, 7 Days

- Chemical Area % (100% − TRS %) [1, 3]: 99.1%
- Physical TGA (%) [1, 3]: 8.63%
- Physical XRPD [1, 3]: Form B
- Chemical % Claim (Cs/Ci × 100%) ([1]; 5° C. Closed Dish, 7 Days (used as standard)): 100.0^& %
- Chemical % Claim (Cs/Ci × 100%) [1, 4]: 100.7%
- Chemical Area % (100% − TRS %) [1, 4]: 99.0%
- Physical TGA (%) [1, 4]: 8.66%
- Physical XRPD [1, 4]: Form B
- Chemical % Claim (Cs/Ci × 100%) [1, 5]: 101.0%
- Chemical Area % (100% − TRS %) [1, 5]: 99.0%
- Physical TGA (%) [1, 5]: 8.64%
- Physical XRPD [1, 5]: Form B
- Chemical % Claim (Cs/Ci × 100%) ([1]; 60° C. Closed Dish, 7 Days): 100.7%
- Chemical Area % (100% − TRS %) ([1]; 60° C. Closed Dish, 7 Days): 99.1%
- Physical TGA (%) ([1]; 60° C. Closed Dish, 7 Days): 8.49%
- Physical XRPD ([1]; 60° C. Closed Dish, 7 Days): Form B
- % area ([2]; pH 2, 25° C., 24 h): 98.7%
- % claim ([2]; pH 2, 25° C., 24 h): 97.1%
- pH ([2]; pH 2, 25° C., 24 h): 2.1
- % area ([2]; pH 2, 25° C., 7 days): 98.5%
- % claim ([2]; pH 2, 25° C., 7 days): 99.1%
- pH ([2]; pH 2, 25° C., 7 days): 2.1
- % area ([2]; pH 2, 37° C., 24 h): 98.7%
- % claim ([2]; pH 2, 37° C., 24 h): 96.8%
- pH ([2]; pH 2, 37° C., 24 h): 2.1
- % area ([2]; pH 2, 37° C., 7 days): 98.4%
- % claim ([2]; pH 2, 37° C., 7 days): 97.5%
- pH ([2]; pH 2, 37° C., 7 days): 2.1
- % area ([2]; pH 2, 50° C., 24 h): 98.3%
- % claim ([2]; pH 2, 50° C., 24 h): 97.0%
- pH ([2]; pH 2, 50° C., 24 h): 2.1
- % area ([2]; pH 2, 50° C., 7 days): 98.4%
- % claim ([2]; pH 2, 50° C., 7 days): 97.0%
- pH ([2]; pH 2, 50° C., 7 days): 2.1
- degradation in solution ([2]; pH 2-10 buffers, 25-50° C., up to 7 days): less than 5%
- % area ([2]; pH 4, 25° C., 24 h): 99.4%
- % claim ([2]; pH 4, 25° C., 24 h): 97.4%
- pH ([2]; pH 4, 25° C., 24 h): 4.2
- % area ([2]; pH 4, 25° C., 7 days): 99.6%
- % claim ([2]; pH 4, 25° C., 7 days): 100.2%
- pH ([2]; pH 4, 25° C., 7 days): 4.2
- % area ([2]; pH 4, 37° C., 24 h): 99.4%
- % claim ([2]; pH 4, 37° C., 24 h): 97.6%
- pH ([2]; pH 4, 37° C., 24 h): 4.1
- % area ([2]; pH 4, 37° C., 7 days): 99.5%
- % claim ([2]; pH 4, 37° C., 7 days): 99.0%
- pH ([2]; pH 4, 37° C., 7 days): 4.1
- % area ([2]; pH 4, 50° C., 24 h): 99.4%
- % claim ([2]; pH 4, 50° C., 24 h): 97.6%
- pH ([2]; pH 4, 50° C., 24 h): 4.1
- % area ([2]; pH 4, 50° C., 7 days): 99.5%
- % claim ([2]; pH 4, 50° C., 7 days): 98.7%
- pH ([2]; pH 4, 50° C., 7 days): 4.2
- % area ([2]; pH 6, 25° C., 24 h): 99.2%
- % claim ([2]; pH 6, 25° C., 24 h): 98.0%
- pH ([2]; pH 6, 25° C., 24 h): 6.2
- % area ([2]; pH 6, 25° C., 7 days): 99.5%
- % claim ([2]; pH 6, 25° C., 7 days): 100.0%
- pH ([2]; pH 6, 25° C., 7 days): 6.2
- % area ([2]; pH 6, 37° C., 24 h): 99.3%
- % claim ([2]; pH 6, 37° C., 24 h): 97.9%
- pH ([2]; pH 6, 37° C., 24 h): 6.2
- % area ([2]; pH 6, 37° C., 7 days): 99.4%
- % claim ([2]; pH 6, 37° C., 7 days): 99.0%
- pH ([2]; pH 6, 37° C., 7 days): 6.3
- % area ([2]; pH 6, 50° C., 24 h): 99.3%
- % claim ([2]; pH 6, 50° C., 24 h): 98.1%
- pH ([2]; pH 6, 50° C., 24 h): 6.2
- % area ([2]; pH 6, 50° C., 7 days): 99.5%
- % claim ([2]; pH 6, 50° C., 7 days): 98.9%
- pH ([2]; pH 6, 50° C., 7 days): 6.2
- % area ([2]; pH 8, 25° C., 24 h): 99.2%
- % claim ([2]; pH 8, 25° C., 24 h): 98.0%
- pH ([2]; pH 8, 25° C., 24 h): 8.2
- % area ([2]; pH 8, 25° C., 7 days): 99.5%
- % claim ([2]; pH 8, 25° C., 7 days): 99.8%
- pH ([2]; pH 8, 25° C., 7 days): 8.2
- % area ([2]; pH 8, 37° C., 24 h): 99.5%
- % claim ([2]; pH 8, 37° C., 24 h): 98.4%
- pH ([2]; pH 8, 37° C., 24 h): 8.2
- % area ([2]; pH 8, 37° C., 7 days): 99.5%
- % claim ([2]; pH 8, 37° C., 7 days): 99.3%
- pH ([2]; pH 8, 37° C., 7 days): 8.3
- % area ([2]; pH 8, 50° C., 24 h): 99.5%
- % claim ([2]; pH 8, 50° C., 24 h): 98.0%
- pH ([2]; pH 8, 50° C., 24 h): 8.3
- % area ([2]; pH 8, 50° C., 7 days): 99.5%
- % claim ([2]; pH 8, 50° C., 7 days): 98.8%
- pH ([2]; pH 8, 50° C., 7 days): 8.3
- % area ([2]; pH 10, 25° C., 24 h): 99.4%
- % claim ([2]; pH 10, 25° C., 24 h): 98.0%
- pH ([2]; pH 10, 25° C., 24 h): 10.9
- % area ([2]; pH 10, 25° C., 7 days): 99.4%
- % claim ([2]; pH 10, 25° C., 7 days): 99.7%
- pH ([2]; pH 10, 25° C., 7 days): 10.9
- % area ([2]; pH 10, 37° C., 24 h): 99.4%
- % claim ([2]; pH 10, 37° C., 24 h): 98.2%
- pH ([2]; pH 10, 37° C., 24 h): 10.9
- % area ([2]; pH 10, 37° C., 7 days): 99.4%
- % claim ([2]; pH 10, 37° C., 7 days): 99.0%
- pH ([2]; pH 10, 37° C., 7 days): 10.9
- % area ([2]; pH 10, 50° C., 24 h): 99.5%
- % claim ([2]; pH 10, 50° C., 24 h): 97.9%
- pH ([2]; pH 10, 50° C., 24 h): 11.0
- % area ([2]; pH 10, 50° C., 7 days): 99.4%
- % claim ([2]; pH 10, 50° C., 7 days): 98.9%
- pH ([2]; pH 10, 50° C., 7 days): 10.9
Compound: CC(C)N(C[C@H]1O[C@@H](n2cnc3c(N)ncnc32)[C@H](O)[C@@H]1O)[C@H]1C[C@@H](CCc2nc3cc(C(C)(C)C)ccc3[nH]2)C1 [Form B, (2R,3R,4S,5R)-2-(6-amino-9H-purin-9-yl)-5-((((1r,3S)-3-(2-(5-(tert-butyl)-1H-benzo[d]imidazol-2-yl)ethyl)cyclobutyl)(isopropyl)amino)methyl)tetrahydrofuran-3,4-diol trihydrate]
